In article PMC8400394, “Adsorption of Recombinant Human β-Defensin 2 and Two Mutants on Mesoporous Silica Nanoparticles and Its Effect against Clavibacter michiganensis subsp. michiganensis” (Nanomaterials, 2021):

Experiments:
Type in all cases: cell-based, Clavibacter michiganensis subsp. michiganensis
Cmm [1] = test: Antimicrobial activity of MSN/AMPs complexes in solid medium; settings: plaque diffusion on MHB with Cmm; 5, 10, 15 µL; 24 h, 28 °C; MSN 5 mg/mL, AMPs 0.5 mg/mL; triplicate
Procedure: The antimicrobial activity of the MSN/AMPs complexes was evaluated both in solid and liquid media. For the solid medium, the adsorption process was carried out as described in the previous section. The pellet was resuspended in PBS (1 mL). Afterwards, different volumes of the MSN/AMPs mixture were deposited onto Petri dishes with MHB medium and Cmm (see antimicrobial activity test section and IC50 determination). The plates were incubated for 24 h at 28 °C, the diameter of the inhibition halos was measured. MSN (5 mg/mL) and AMPs (0.5 mg/mL) were employed as controls. These experiments were performed by triplicates.

Cmm [2] = test: Determination of IC50 of the recombinant AMPs; settings: Cmm in MHB, minimum concentration of AMP that inhibits 50% of the growth
Procedure: (§1) Cmm was cultivated in Mueller-Hinton broth (MHB) at […] for 16 h at 180 rpm. Employing 0.5 mL of the previous culture, 50 mL of fresh MHB were inoculated. The culture was maintained under the conditions mentioned above until the OD600 reached 0.2–0.3. 9.5 mL of MHB agar prewarmed to 37 °C were added to 0.5 mL of the culture. It was homogenized and then poured onto a Petri dish containing MHB agar to form a uniform layer of 2 mm. Once the surface was dry, different volumes (5, 10 and 15 μL) of the defensins under study (50 μM) were added to the surface. The plates were incubated for 24 h at 28 °C, then the formed inhibition halos were measured. CH3COOH (acid acetic)10 mM pH 2.4 and Tris 50 mM pH 8.4 were used both as negative controls. The IC50 was determined based on that reported by Tay and Liu. This measurement was defined as the minimum concentration of AMP that is required to inhibit 50% of the growth of Cmm.

Cmm [3] = test: Effect of pepsin on AMPs and MSN/AMPs complexes (growth of Cmm after protease treatment); settings: AMPs (1 mg/mL) treated with pepsin (1 mg/mL), 5:1 peptide:enzyme; then Cmm culture 28 °C, 24 h; CFU count; duplicate
Procedure: After removing the supernatant and drying the MSN/AMP complexes, 200 µL of the pepsin (1 mg/mL) were added and incubated at 37 °C for 16 h under constant shaking. The microtubes were then centrifuged at 5000× g for 10 min at 4 °C. The resulting pellet was washed twice with deionized water and centrifuged at 5000× g for 10 min at 4 °C between each wash. MSN/AMPs complexes were resuspended in 3 mL of diluted Cmm culture and incubated at 28 °C for 24 h at 180 rpm. After the incubation period, serial dilutions were performed up to 1 × 10^6 of which 100 µL were taken and Petri dishes were poured with 30 mL MHB medium. The plates were incubated at 28 °C for 72 h and the colonies were counted, bacterial growth was expressed as CFU/mL. Controls were prepared with MSN (5 mg/mL) in PBS and AMPs (1 mg/mL) treated with protease (1 mg/mL) in a 5:1 ratio (peptide:enzyme). The experiments for this assay were performed by duplicate.

Cmm [4] = test: Antimicrobial activity of AMPs by the plaque diffusion method; settings: plaque diffusion on MHB agar with Cmm; 5, 10 and 15 μL of 50 μM; CH3COOH 10 mM pH 2.4 and Tris 50 mM pH 8.4; 24 h, 28 °C; triplicate
Procedure: as §1

In the case of human β-defensin-2 [hβD2], the “antimicrobial activity in solid medium (inhibition halos)” value (Cmm [1]) is reported as “greater inhibition than MNS/hβD2”, the IC50 (Cmm [2]; AMP in CH3COOH 10 mM pH 2.4) is reported as 3.64 ± 0.33 µg/mL and the IC50 (Cmm [2]; AMP in Tris 50 mM pH 8.4) is reported as 3.61 ± 0.47 µg/mL. The “Cmm growth inhibition after pepsin treatment, AMPs without the mesoporous matrix” value (Cmm [3]) was 99.98% and the “antimicrobial activity (inhibition halos)” value (Cmm [4]) was “exhibited inhibition halos”.
